Reference: publication PMC11984924, “Dipeptidic Phosphonates: Potent Inhibitors of Pseudomonas aeruginosa Elastase B Showing Efficacy in a Murine Keratitis Model” (Advanced Science, 2025)

What was measured:
cyclooxygenase 1 (COX1) = biological target: T1, cyclooxygenase 1 (COX1) (Homo sapiens, UniProt P23219); experiment: SafetyScreen44: COX1; format: biochemical
T1 construct: Eurofins Cerep SA (CRO)
Text: Moreover, we explored the safety profile of frontrunner (R)‐30 in more detail in order to detect additional crucial off‐target interactions. For this purpose, we employed the SafetyScreen44 in vitro panel comprising selected binding, inhibition and uptake assays.^[ [35] ^] The panel is a specialized pharmacological profiling tool that tests compounds against 44 key molecular targets, aiming to identify potential safety risks early in drug discovery. […]
The off-target Safety Screen44TM was performed by the CRO Eurofins Cerep SA (Celle-
L'Evescault, France) according to their protocols.[13] […]
MMP-1 MMP-2 MMP-3 TACE (ADAM17)
Compound [% inhibition at [% inhibition at [% inhibition at [% inhibition at 100

LasB = biological target: T2, LasB (Pseudomonas aeruginosa, UniProt Q02RJ6); experiment: KC/LasB co-incubation study (ELISA); format: biochemical; details: 100 µM (R)-30, 100 nM LasB, 10 min
T2 construct: made in house
T2 sequence (Q02RJ6 198-498): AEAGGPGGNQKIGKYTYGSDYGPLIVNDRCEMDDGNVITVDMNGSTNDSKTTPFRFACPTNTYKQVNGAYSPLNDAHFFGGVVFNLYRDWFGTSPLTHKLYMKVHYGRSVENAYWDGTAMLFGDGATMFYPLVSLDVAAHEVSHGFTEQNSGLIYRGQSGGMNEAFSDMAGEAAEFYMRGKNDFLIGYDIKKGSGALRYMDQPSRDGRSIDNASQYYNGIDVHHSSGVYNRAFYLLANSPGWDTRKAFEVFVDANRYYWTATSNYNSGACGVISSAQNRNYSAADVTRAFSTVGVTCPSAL
Experimental: Figure S15: MS-based quantification of (R)-30 levels in serum and eye homogenate. Concentrations were determined after single treatment ((R)-30 alone) or after combination with Meropenem.
To test whether KC might be a substrate for LasB, an ELISA was used to quantify KC levels after co-incubation with LasB. Briefly, 500 pg/ml of the recombinant murine KC standard (R&D part 840327) was incubated for 10 minutes in PBS supplemented with 1% BSA and 0.1% DMSO (vehicle control), LasB (100 nM), (R)-30 (100 µM), or a combination of both. Detection of KC and absorbance measurements were performed as described above (3.11).
(also on this page, place not known: Serum Eye homogenate 100 1000 concentrations Concentration [ng/mL] Meropenem + (R)-30 (R)-30 , 10 LasB (R)-30)
(1 picture or pasted object on this page, not shown here)

[1] = Stability in rat liver microsomes; format: in vitro ADME; details: Wistar, read-out: Rat Liver Microsomes t1/2
Experimental: Samples were stored on ice until the end of the incubation and precipitated protein was removed by centrifugation (15 min, 4 °C, 4,000 g). Concentration of the remaining test […]
compound at the different time points was analyzed by HPLC-MS/MS (TSQ Quantum Access […]
MAX, Thermo Fisher, Dreieich, Germany) and used to determine half -life (t1/2) and intrinsic […]
Species profiling was conducted as above using 0.5 mg/mL pooled mouse, rat or minipig liver microsomes (Xenotech, Kansas City, USA) with 2 mM NADPH and 10 mM MgCl2 and testosterone, verapamil and ketoconazole as reference compounds. […]
Thermo Fisher, Dreieich, Germany) and used to determine half-life (t1/2).
Table S2: Additional in vitro ADMET data for selected dipeptides. n.d.: not determined.
Kinetic Liver S9 Clint [µL/mg/min] Plasma t1/2 [min] LogD7.4 […]
pH 7.4 [µM] Mouse Human Mouse Human

T1 sequence (P23219 24-599): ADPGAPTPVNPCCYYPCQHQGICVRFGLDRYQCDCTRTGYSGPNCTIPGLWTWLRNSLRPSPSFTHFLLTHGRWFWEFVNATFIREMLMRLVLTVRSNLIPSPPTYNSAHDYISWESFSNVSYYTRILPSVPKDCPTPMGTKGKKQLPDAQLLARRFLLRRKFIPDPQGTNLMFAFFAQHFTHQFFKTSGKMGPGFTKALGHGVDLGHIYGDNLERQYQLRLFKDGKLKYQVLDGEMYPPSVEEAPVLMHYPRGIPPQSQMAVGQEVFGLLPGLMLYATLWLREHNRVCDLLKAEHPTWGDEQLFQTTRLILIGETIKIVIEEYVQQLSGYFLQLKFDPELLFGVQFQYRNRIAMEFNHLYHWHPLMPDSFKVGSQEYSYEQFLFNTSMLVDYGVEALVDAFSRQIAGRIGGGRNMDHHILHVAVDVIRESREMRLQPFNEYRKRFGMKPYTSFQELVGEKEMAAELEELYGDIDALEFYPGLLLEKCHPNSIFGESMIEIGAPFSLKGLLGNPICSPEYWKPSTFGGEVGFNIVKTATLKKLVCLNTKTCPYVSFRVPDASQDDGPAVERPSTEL

| SMILES | inhibition at 100 µM (cyclooxygenase 1 (COX1)) [%] | proteolytic activity of LasB on KC (LasB) | half-life at 1 µM [1] [h] |
| --- | --- | --- | --- |
| CC(=O)c1ccc(NC(=O)[C@@H](NC(=O)[C@@H](CC(C)C)P(=O)(O)O)C(C)C)cc1 [(R)‐30] | 81.5 | effectively blocked |  |
| CC(=O)c1ccc(NC(=O)[C@@H](NC(=O)C(CC(C)C)P(=O)(O)O)C(C)C)cc1 (stereo partly drawn) [compound 30] |  |  | > 2 |
